According to PubChem BioAssay (NCI):
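Dose response: 5 concentrations. Exposure: 48 h. Format: 96-well plates. Endpoint: linear interpolation; highest concentration if not reached. GI50 is the concentration that inhibits growth by half. Definition used: TGI = concentration required for complete inhibition of growth.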

Key:
Experiment in all cases: DTP human tumour cell line panel, 48 h
K-562 leukemia = tested on: K-562 leukemia
SN12C renal = tested on: SN12C renal
MDA-MB-231 breast = tested on: MDA-MB-231 breast
HL-60(TB) leukemia = tested on: HL-60(TB) leukemia
HS 578T breast = tested on: HS 578T breast
SK-MEL-2 melanoma = tested on: SK-MEL-2 melanoma
EKVX NSCLC = tested on: EKVX NSCLC
RPMI-8226 leukemia = tested on: RPMI-8226 leukemia
U251 CNS = tested on: U251 CNS
RXF 393 renal = tested on: RXF 393 renal

SMILES: COc1ccc2c3c(Nc4cccc(/C(C)=N\O)c4)[nH]c4ccccc4c-3c(N=O)c2c1
- GI50 (K-562 leukemia): 31.6 µM
- TGI (K-562 leukemia): > 100 µM
- GI50 (SN12C renal): 30 µM
- TGI (SN12C renal): > 100 µM
- GI50 (MDA-MB-231 breast): 18.9 µM
- TGI (MDA-MB-231 breast): 44.5 µM
- GI50 (HL-60(TB) leukemia): 16.9 µM
- TGI (HL-60(TB) leukemia): > 100 µM
- GI50 (HS 578T breast): 94.8 µM
- TGI (HS 578T breast): > 100 µM
- GI50 (SK-MEL-2 melanoma): 19.7 µM
- TGI (SK-MEL-2 melanoma): 67.7 µM
- GI50 (EKVX NSCLC): 20.5 µM
- TGI (EKVX NSCLC): 93.2 µM
- GI50 (RPMI-8226 leukemia): 25.5 µM
- TGI (RPMI-8226 leukemia): > 100 µM
- GI50 (U251 CNS): 33.3 µM
- TGI (U251 CNS): > 100 µM

SMILES: COc1cc(C2c3cc4c(cc3[C@@H](Nc3cccc(CO)c3)C3COC(=O)[C@H]23)OCO4)cc(OC)c1O (stereo partly specified)
- TGI (K-562 leukemia): 5.87 µM
- TGI (SN12C renal): 6.11 µM
- TGI (HL-60(TB) leukemia): 0.343 µM
- TGI (SK-MEL-2 melanoma): 6.2 µM
- TGI (RXF 393 renal): 6.05 µM
- TGI (EKVX NSCLC): 19.8 µM
- TGI (RPMI-8226 leukemia): 2.12 µM

SMILES: CC(CC(N)C(=O)O)C(=O)O (stereo unspecified)
- TGI (K-562 leukemia): > 100 µM
- TGI (SN12C renal): > 100 µM
- TGI (MDA-MB-231 breast): > 100 µM
- TGI (HL-60(TB) leukemia): > 100 µM
- TGI (HS 578T breast): > 100 µM
- TGI (SK-MEL-2 melanoma): > 100 µM
- TGI (RXF 393 renal): > 100 µM
- TGI (EKVX NSCLC): > 100 µM
- TGI (U251 CNS): > 100 µM

SMILES: COc1cc(OC)cc(-c2ccc(-c3ccc(C(=N)N)cn3)o2)c1
- GI50 (K-562 leukemia): 1.32 µM
- TGI (K-562 leukemia): 2.98 µM
- GI50 (HL-60(TB) leukemia): 2.12 µM
- TGI (HL-60(TB) leukemia): 4.38 µM
- GI50 (HS 578T breast): 1.66 µM
- TGI (HS 578T breast): 3.58 µM
- GI50 (SK-MEL-2 melanoma): 2.01 µM
- TGI (SK-MEL-2 melanoma): 3.72 µM
- GI50 (RPMI-8226 leukemia): 1.92 µM
- TGI (RPMI-8226 leukemia): 4.33 µM
- GI50 (U251 CNS): 1.62 µM
- TGI (U251 CNS): 3.02 µM

SMILES: OCC1COc2cc(Cl)c(Cl)cc2O1 (stereo unspecified)
- TGI (K-562 leukemia): > 10 µM
- TGI (SN12C renal): > 10 µM
- TGI (MDA-MB-231 breast): > 10 µM
- TGI (HL-60(TB) leukemia): > 10 µM
- TGI (HS 578T breast): > 10 µM
- TGI (SK-MEL-2 melanoma): > 10 µM
- TGI (RXF 393 renal): > 10 µM
- TGI (EKVX NSCLC): > 10 µM
- TGI (RPMI-8226 leukemia): > 10 µM
- TGI (U251 CNS): > 10 µM

SMILES: CSCC[C@@H]1C(=O)N(C)[C@H](C(C)(C)C)N1C(=O)c1ccccc1
- TGI (K-562 leukemia): > 100 µM
- TGI (SN12C renal): > 100 µM
- TGI (HL-60(TB) leukemia): > 100 µM
- TGI (SK-MEL-2 melanoma): > 100 µM
- TGI (RXF 393 renal): > 100 µM
- TGI (EKVX NSCLC): > 100 µM
- TGI (RPMI-8226 leukemia): > 100 µM
- TGI (U251 CNS): > 100 µM

SMILES: COc1nc2cccc(C(O)c3ccccc3)c2nc1-c1ccccc1 (stereo unspecified)
- TGI (K-562 leukemia): 19.7 µM
- TGI (SN12C renal): 25.6 µM
- TGI (MDA-MB-231 breast): 31.9 µM
- TGI (HL-60(TB) leukemia): 18 µM
- TGI (HS 578T breast): 5.62 µM
- TGI (SK-MEL-2 melanoma): 33.3 µM
- TGI (RXF 393 renal): 14.6 µM
- TGI (EKVX NSCLC): 41.9 µM
- TGI (RPMI-8226 leukemia): 10.8 µM
- TGI (U251 CNS): 16.8 µM

SMILES: CC1(C)[C@@H]2CC[C@]1(C)[C@H](OC(=O)/C=C/c1ccccc1)C2
- TGI (K-562 leukemia): 38.1 µM
- TGI (SN12C renal): 34.3 µM
- TGI (MDA-MB-231 breast): 35 µM
- TGI (HL-60(TB) leukemia): 40.5 µM
- TGI (HS 578T breast): 41.7 µM
- TGI (SK-MEL-2 melanoma): 35 µM
- TGI (RXF 393 renal): 33.2 µM
- TGI (EKVX NSCLC): 41.8 µM
- TGI (U251 CNS): 32.4 µM

SMILES: COc1cc(C(=O)O[C@H](C(=O)NCCCNC(=O)[C@@H](OC(=O)c2cc(OC)cc3c(C)cccc23)[C@]2(C)CO2)[C@]2(C)CO2)c2cccc(C)c2c1
- GI50 (K-562 leukemia): < 0.0359 µM
- TGI (K-562 leukemia): 0.923 µM
- TGI (SN12C renal): 0.486 µM
- GI50 (MDA-MB-231 breast): 0.153 µM
- TGI (MDA-MB-231 breast): 0.579 µM
- GI50 (HL-60(TB) leukemia): < 0.01 µM
- TGI (HL-60(TB) leukemia): < 0.01 µM
- GI50 (HS 578T breast): 0.206 µM
- GI50 (SK-MEL-2 melanoma): 0.137 µM
- TGI (SK-MEL-2 melanoma): 34.6 µM
- GI50 (RXF 393 renal): < 0.01 µM
- TGI (RXF 393 renal): < 0.01 µM
- GI50 (EKVX NSCLC): 0.0885 µM
- TGI (EKVX NSCLC): 1.61 µM
- GI50 (RPMI-8226 leukemia): 0.322 µM
- TGI (RPMI-8226 leukemia): 2.26 µM
- GI50 (U251 CNS): < 0.01 µM
- TGI (U251 CNS): 0.0206 µM
